Measurements: patent US12435062B2, “Amide compounds and uses thereof” (HUTCHISON MEDIPHARMA LIMITED, priority 2020, dated 2025)

Legend:
[1] = system: Ba/F3^BCR-FMS-11 cells; assay: Cell proliferation experiment (Ba/F3^BCR-FMS-11, cckit-8); type: cell-based, mouse; conditions: Mus musculus, Ba/F3^BCR-FMS-11 cell proliferation
Outline: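 Ba/F3 cells stably expressing BCR-FMS, CSF-1R-dependent for growth, seeded at 5000/well in RPMI 1640 with 10% FBS and exposed to 8 compound concentrations for 72 h at 37 °C.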

[2] = target: CSF1R phosphorylation in THP-1 cells (Homo sapiens (Human), UniProt P07333); assay: Detection of CSF1R phosphorylation activity at cell level (THP-1, M-CSF stimulated, ELISA); type: cell-based; conditions: p-CSF1R ELISA, compound 60 min, 300 ng/mL M-CSF 1 min
Protocol: Detection of CSF1R Phosphorylation Activity at Cell Level
THP-1 (ATCC), human acute monocytic leukemia cells. The cells were cultured in an RPMI 1640 medium containing 10% FBS.
2. Reagents and instruments
• Human phosphorylation-CSF1R ELISA kit: R&D, #DYC3268-2; • RPMI 1640 culture solution: GIBCO, 910491; • Human M-CSF recombinant cytokine: R&D, 9216-MC-500; • Cell lysis buffer: Cell Signal, 99803S; • 1×PBS buffer (1 L): 8.0 g of NaCl, 0.2 g of KCl, 3.58 g of Na2HPO4-12H2O, 0.24 g of KH2PO4 were dissolved in 1 L of dd H2O, and the pH was adjusted to 7.4; • Blocking solution: PBS buffer containing 1% BSA; • PBST washing liquid: PBS buffer containing 0.05% Tween-20; • Chromogenic substrate: R&D, #DY999; • 2N H2SO4; • Microwell plate reader: Labsystems Multiskan K3: Thermo; Envision: Perkin Elmer; • ELISA plate: Corning, #9018; • Cell culture plate: Facol, #353027. 3. Treatment of cells and preparation of lysis buffer
THP-1 cells were resuspended in RPMI-1640 culture solution containing 2% FBS, and the culture was added to a 96-well plate at a density of 5×10^4/well, 50 μL/well, and cultured in a cell incubator at 5% CO2 and 37° C. overnight; The test compound was diluted with a serum-free RPMI-1640 medium to 3, 1.1, 0.37, 0.12, 0.04, 0.014, 0.005 and 0.002 μM, and the concentration of DMSO was 5%. 5 μL of the diluted compound was added to the 50 μL cell culture system, the culture was cultured in a 5% CO2, 37° C. cell incubator for 60 min, 300 ng/mL of M-CSF was added to the cells, and the mixture was stimulated in the 37° C. cell incubator for 1 min, added 50 μL of cell lysis buffer, and stored in a refrigerator at −80° C.
100 μL/well of the p-CSF1R capture antibody diluted to 0.8 μg/mL with PBS was added to the ELISA plate, and the plate was coated on a shaker at room temperature overnight. The culture was washed with PBST, and then added blocking solution and incubated at room temperature for 2 h. The culture was washed with PBST, added 90 μL of cell lysis buffer, and incubated on a shaker at 25° C. for 2 h. The plate was washed with PBST three times, added 100 μL of anti-p-tyrosine-HRP detection antibody diluted with 0.1% PBS-BSA diluent, and incubated on a shaker at 25° C. for 2 h. The plate was washed with PBST washing liquid, added 100 μL of chromogenic substrate and incubated at room temperature for 10-20 min. The reaction was stopped by adding 50 μL of 2N H2SO4. The optical density signal (450/570 nm) of each well was detected in Labsystems Multiskan K3 or Envision.
wherein • Drug-treated well read-out: indicating the optical density signal of a cell well with the test compound treatment. • Background read-out: indicating the optical density signal of a well without cells but with cell lysis buffer. • Cell well read-out: indicating the optical density signal of a cell well not treated with the compound. 6. Calculation of IC50: obtained by using XL-Fit 5.3 software. 7. Test results

[3] = target: Recombinant human CSF1R kinase (Homo sapiens (Human), UniProt P07333); type: biochemical; conditions: Z-LYTE Tyr 1 peptide substrate
Chain of Recombinant human CSF1R kinase (P07333 20-972): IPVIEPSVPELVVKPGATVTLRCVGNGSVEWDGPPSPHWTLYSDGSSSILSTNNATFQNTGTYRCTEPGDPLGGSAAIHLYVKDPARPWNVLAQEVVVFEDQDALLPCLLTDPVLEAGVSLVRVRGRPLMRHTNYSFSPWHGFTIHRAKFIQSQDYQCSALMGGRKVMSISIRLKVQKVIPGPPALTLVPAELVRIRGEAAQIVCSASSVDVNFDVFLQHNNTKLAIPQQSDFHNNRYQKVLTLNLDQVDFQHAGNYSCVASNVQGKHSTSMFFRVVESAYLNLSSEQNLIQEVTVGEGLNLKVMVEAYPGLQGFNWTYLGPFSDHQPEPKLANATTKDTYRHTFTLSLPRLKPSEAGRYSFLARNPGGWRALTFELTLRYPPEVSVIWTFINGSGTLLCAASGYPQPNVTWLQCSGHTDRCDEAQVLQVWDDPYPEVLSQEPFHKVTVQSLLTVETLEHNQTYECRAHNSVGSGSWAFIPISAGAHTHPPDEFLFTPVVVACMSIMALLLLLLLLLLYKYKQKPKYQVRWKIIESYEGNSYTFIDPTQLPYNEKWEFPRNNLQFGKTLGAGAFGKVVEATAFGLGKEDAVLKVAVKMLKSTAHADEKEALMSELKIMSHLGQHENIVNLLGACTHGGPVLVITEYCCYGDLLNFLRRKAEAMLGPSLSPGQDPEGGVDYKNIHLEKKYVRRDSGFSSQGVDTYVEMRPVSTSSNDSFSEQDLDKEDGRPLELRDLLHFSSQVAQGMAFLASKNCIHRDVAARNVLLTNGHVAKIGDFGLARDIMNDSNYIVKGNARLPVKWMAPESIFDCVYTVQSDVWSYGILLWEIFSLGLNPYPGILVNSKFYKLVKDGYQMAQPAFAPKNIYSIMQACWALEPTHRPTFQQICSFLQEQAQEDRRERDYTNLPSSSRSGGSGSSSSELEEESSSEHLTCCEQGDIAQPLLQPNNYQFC
Protocol: Measurement of CSF1R Kinase Activity at Molecular Level
1. Reagents and materials:
• Z-LYTE™ Tyr 1 peptide substrate: Invitrogen, PV3190; • 5× kinase buffer: Invitrogen, PV3189; • 10 mM ATP: Invitrogen, PV3227; • Development reagent B: Invitrogen, PV3295; • Development buffer: Invitrogen, P3127; • Stopping solution: Invitrogen, P3094; • Recombinant human CSF1R kinase: Invitrogen, PR4598A; • 384 well plate, black: Corning, 3575; Envision: Perkin Elmer. 2. Preparation of reaction solutions
1) 1.33× kinase buffer: 5× kinase buffer was diluted to a 1.33× kinase buffer with ddH2O.
2) Dilution of a 4× test compound: The test compound was diluted in gradient to 4-fold the reaction concentration and the concentration of DMSO was kept at 8%. The final concentration of the compound in reaction was: 1, 0.33, 0.11, 0.037, 0.012, 0.004, 0.0014, 0.00046 μM, and the final concentration of DMSO was 2%.
3) A mixture of kinase/peptide substrate: In 1.33× kinase buffer, the kinase and Z-LYTE™ Tyr 1 peptide substrate were diluted to 0.12 μg/mL and 4 μM, respectively, to prepare a mixture of kinase/peptide substrate. The mixture was mixed gently with a pipette.
4) A phosphorylated peptide substrate solution (PP solution): 0.4 μL of Z-LYTE™ Tyr1 phosphorylated peptide substrate was added to 99.6 μL of 1.33× kinase buffer.
5) ATP solution: 10 mM of ATP was diluted to 760 μM with 1.33× kinase buffer to prepare ATP solution.
6) Development solution: Development reagent B was diluted with Development buffer at a ratio of 1:200.
1) Kinase reaction (10 μL system)
2.5 μL of 4× test compound was added to each reaction well of the 384 plate, and the corresponding volume of 8% DMSO was added to the control well. The plate was placed on ice. 5 μL of a mixture of kinase/peptide substrate, 2.5 μL of kinase buffer and ATP solution were successively added to each well. Three control groups were set up: Group C1 contains only kinase buffer, group C2 contains the mixture of kinase/peptide substrate, kinase buffer and ATP, and group C3 contains 5 μL of PP solution. After adding the reaction components, the 384-well plate was sealed and incubated at 25-30° C. for 1 h in dark.
5 μL of Development solution was added to each well, sealed and incubated at 25-30° C. for another 1 h in dark.
3) Reaction stopping and plate reading
5 μL of stopping solution was added to each well. The Coumarin value (excitation at 400 nm, emission at 445 nm) and Fluorescein value (excitation at 400 nm, emission at 520 nm) were measured, respectively.
ER (emission ratio): Coumarin emission read-out (445 nm)/Fluorescein emission read-out (520 nm); • C3 445 nm: 100% phosphorylated Coumarin emission read-out; • C3 520 nm: 100% phosphorylated Fluorescein emission read-out; • C1 445 nm: 0% phosphorylated Coumarin emission read-out; • C1 520 nm: 0% phosphorylated Fluorescein emission read-out. Inhibition rate % (IR)=[1−% phosphorylation ratetest sample/100% phosphorylation ratecontrol]×100%
% phosphorylation ratetest sample: phosphorylation rate of the test compound; • 100% phosphorylation ratecontrol: phosphorylation rate of C3 control group.
5. IC50 values: calculated by using software XL-Fit™ (version 5.3) supplied by ID Business Solutions (Guildford, UK), which is an additional software to Microsoft Excel.

Chain of CSF1R phosphorylation in THP-1 cells (P07333 20-972): as above

SMILES | IC50 [2] | IC50 [3] | IC50 ([1]; 72 h) | IC50 ([1]; 72 hours)
CN(C)CCn1cccc(C(=O)Nc2ccc(Oc3ccnc(-c4cnn(C)c4)c3)cn2)c1=O [Compound 81, 1-(2-(dimethylamino)ethyl)-N-(5-((2-(1-methyl-1H-pyrazol-4-yl)pyridin-4-yl)oxy)pyridin-2-yl)-2-oxo-1,2-dihydropyridine-3-carboxamide] | 145 nM | 34 nM | – | 143 nM
Cn1cc(-c2cc(Oc3ccc(NC(=O)c4cccn(C5CCC5)c4=O)nc3)ccn2)cn1 [Compound 89] | 16 nM | 8 nM | 8 nM | –
Cc1nc(NC(=O)c2cccn(C(C)C)c2=O)ccc1Oc1ccnc(-c2cnn(C)c2)c1 [Compound 93, 1-isopropyl-N-(6-methyl-5-((2-(1-methyl-1H-pyrazol-4-yl)pyridin-4-yl)oxy)pyridin-2-yl)-2-oxo-1,2-dihydropyridine-3-carboxamide] | 61 nM | 17 nM | 13 nM | –
CC(C)n1cccc(C(=O)Nc2ccc(Oc3ccnc(-c4cnn(CCO)c4)c3)cn2)c1=O [Compound 95, N-(5-((2-(1-(2-hydroxyethyl)-1H-pyrazol-4-yl)pyridin-4-yl)oxy)pyridin-2-yl)-1-isopropyl-2-oxo-1,2-dihydropyridine-3-carboxamide] | 16 nM | 8 nM | 14 nM | –
Cn1ncc(-c2cc(Oc3ccc(NC(=O)c4cccn(C)c4=O)nc3)ccn2)n1 [Compound 99, 1-methyl-N-(5-((2-(2-methyl-2H-1,2,3-triazol-4-yl)pyridin-4-yl)oxy)pyridin-2-yl)-2-oxo-1,2-dihydropyridine-3-carboxamide] | 748 nM | 70 nM | 534 nM | –
CC(C)n1cccc(C(=O)Nc2ccc(Oc3ccnc(-c4cn(C)cn4)c3)cn2)c1=O [Compound 100] | 15 nM | 8 nM | 15 nM | –
Cc1ccc(-c2cc(Oc3ccc(NC(=O)c4cccn(C(C)C)c4=O)nc3)ccn2)cn1 [Compound 101] | 22 nM | 7 nM | 31 nM | –
CC(C)n1cccc(C(=O)Nc2ccc(Oc3ccnc(-c4nccn4C)c3)cn2)c1=O [Compound 102] | 132 nM | 36 nM | 151 nM | –
Cn1cc(-c2cc(Oc3ccc(NC(=O)c4ccc(N)n(C)c4=O)nc3)ccn2)cn1 [Compound 105, 6-amino-1-methyl-N-(5-((2-(1-methyl-1H-pyrazol-4-yl)pyridin-4-yl)oxy)pyridin-2-yl)-2-oxo-1,2-dihydropyridine-3-carboxamide] | 69 nM | 9 nM | 84 nM | –
Cn1cnc(-c2cc(Oc3ccc(NC(=O)c4cccn(C)c4=O)nc3)ccn2)c1 [Compound 107, 1-methyl-N-(5-((2-(1-methyl-1H-imidazol-4-yl)pyridin-4-yl)oxy)pyridin-2-yl)-2-oxo-1,2-dihydropyridine-3-carboxamide] | 17 nM | 9 nM | 35 nM | –
CC(C)n1cccc(C(=O)Nc2ncc(Oc3ccnc(-c4cnn(C)c4)c3)cc2F)c1=O [Compound 108] | 24 nM | 11 nM | 12 nM | –
Cc1ncc(C(=O)Nc2ccc(Oc3ccnc(-c4cnn(CCO)c4)c3)cn2)c(=O)n1C [Compound 113, N-(5-((2-(1-(2-hydroxyethyl)-1H-pyrazol-4-yl)pyridin-4-yl)oxy)pyridin-2-yl)-1,2-dimethyl-6-oxo-1,6-dihydropyrimidine-5-carboxamide] | 17 nM | 34 nM | 48 nM | –
Cc1ncc(-c2cc(Oc3ccc(NC(=O)c4cccn(C)c4=O)nc3)ccn2)s1 [Compound 114] | 35 nM | 42 nM | 79 nM | –
Cc1ccc(-c2cc(Oc3ccc(NC(=O)c4cccn(C)c4=O)nc3)ccn2)cn1 [Compound 115] | 22 nM | 46 nM | 38 nM | –
Cc1ncc(C(=O)Nc2ccc(Oc3ccnc(-c4cccs4)c3)cn2)c(=O)n1C [Compound 116] | 21 nM | 105 nM | 201 nM | –

Compounds with a lower IC50 [2], results first:

IC50 [2] | IC50 [3] | IC50 ([1]; 72 h) | SMILES | IC50 ([1]; 72 hours)
11 nM | 6 nM | 9 nM | COCCn1cccc(C(=O)Nc2ccc(Oc3ccnc(-c4cnn(C)c4)c3)cn2)c1=O [Compound 82] | –
13 nM | 9 nM | 7 nM | Cn1cc(-c2cc(Oc3ccc(NC(=O)c4cccn(C5COC5)c4=O)nc3)ccn2)cn1 [Compound 83] | –
10 nM | 6 nM | 8 nM | Cn1cc(-c2cc(Oc3ccc(NC(=O)c4cccn(CCO)c4=O)nc3)ccn2)cn1 [Compound 84] | –
5 nM | 5 nM | 7 nM | Cn1cc(-c2cc(Oc3ccc(NC(=O)c4cccn(C)c4=O)nc3)ccn2)cn1 [Compound 85] | –
7 nM | 5 nM | 7 nM | CC(C)n1cccc(C(=O)Nc2ccc(Oc3ccnc(-c4cnn(C)c4)c3)cn2)c1=O [Compound 86] | –
10 nM | 3 nM | 8 nM | C=CCn1cccc(C(=O)Nc2ccc(Oc3ccnc(-c4cnn(C)c4)c3)cn2)c1=O [Compound 88] | –
10 nM | 6 nM | 2 nM | Cn1cc(-c2cc(Oc3ccc(NC(=O)c4ccc(C(F)(F)F)n(C)c4=O)nc3)ccn2)cn1 [Compound 90] | –
9 nM | 3 nM | 3 nM | Cc1ccc(C(=O)Nc2ccc(Oc3ccnc(-c4cnn(C)c4)c3)cn2)c(=O)n1C [Compound 91] | –
8 nM | 8 nM | 10 nM | CC(C)n1cccc(C(=O)Nc2ccc(Oc3ccnc(Nc4cnn(C)c4)c3)cn2)c1=O [Compound 96, 1-isopropyl-N-(5-((2-((1-methyl-1H-pyrazol-4-yl)amino)pyridin-4-yl)oxy)pyridin-2-yl)-2-oxo-1,2-dihydropyridine-3-carboxamide] | –
7 nM | 18 nM | 15 nM | Cn1cc(Nc2cc(Oc3ccc(NC(=O)c4cccn(C)c4=O)nc3)ccn2)cn1 [Compound 97] | –
7 nM | 6 nM | 9 nM | CC(C)n1cccc(C(=O)Nc2ccc(Oc3ccnc(-c4cn(C)nn4)c3)cn2)c1=O [Compound 103] | –
14 nM | 5 nM | 6 nM | Cn1cc(-c2cc(Oc3ccc(NC(=O)c4cccn(C5CC5)c4=O)nc3)ccn2)cn1 [Compound 104, 1-cyclopropyl-N-(5-((2-(1-methyl-1H-pyrazol-4-yl)pyridin-4-yl)oxy)pyridin-2-yl)-2-oxo-1,2-dihydropyridine-3-carboxamide] | –
10 nM | 7 nM | 7 nM | CNc1ccc(C(=O)Nc2ccc(Oc3ccnc(-c4cnn(C)c4)c3)cn2)c(=O)n1C [Compound 106, 1-methyl-N-(5-((2-(1-methyl-1H-pyrazol-4-yl)pyridin-4-yl)oxy)pyridin-2-yl)-6-(methylamino)-2-oxo-1,2-dihydropyridine-3-carboxamide] | –
10 nM | 19 nM | 8 nM | Cc1cc(Nc2cc(Oc3ccc(NC(=O)c4cnc(C)n(C)c4=O)nc3)ccn2)n[nH]1 [Compound 111, 1,2-dimethyl-N-(5-((2-((5-methyl-1H-pyrazol-3-yl)amino)pyridin-4-yl)oxy)pyridin-2-yl)-6-oxo-1,6-dihydropyrimidine-5-carboxamide] | –
10 nM | 19 nM | 22 nM | Cc1cc(Nc2cc(Oc3ccc(NC(=O)c4cccn(C)c4=O)nc3)ccn2)n[nH]1 [Compound 112] | –
